Laboratory results: patent US20180125835A1, “Dosage and Use of an A2A Antagonist” (H. Lundbeck A/S, priority 2014, published 2018)

Experiments:
A2A receptor = A2A receptor (Rattus norvegicus, UniProt P30543); test: Reversal of CGS21680-induced hypolocomotion; type: in vivo
Procedure: Doses of 0.01, 0.03, 0.06, 0.1 mg/kg were tested in a dosage form of 0.5 w/v % methyl cellulose 400 (viscosity: 400 cP) in distilled water. Drug was administered at a volume of 5 ml/kg, oral.
Sixty (60) male Long Evans rats, 3 months age, were allocated into 6 groups of N=10 rats per group.
The activity test, monitoring the rat's spontaneous activity was measured in the automated
Med Associates activity test chamber for 20 minutes. The tracking arena was of dimension 17′W×17″L×12″H, sensor bars were secured 1″ above the floor to track distance travelled, and a second set of sensor bars were placed 6″ above the floor to measure vertical movement and rearing activity. The parameters set on the tracking software were: resolution—50 ms, box size—4 beams, resting delay—500 ms, and ambulatory trigger—2.

MPTP-lesion marmosets = test: Disability reversal score in MPTP-lesion marmosets, PK/PD modelling; type: in vivo, marmoset; details: MPTP-treated marmosets, 0.1-3 mg/kg, Emax PK/PD modelling
Procedure: Marmosets received several MPTP regimens (single MPTP regimen: 2 mg/kg, s.c., per day for 3 consecutive days) before the marmosets were used for PK/PD measurements.
In the absence of any striatal occupancy data in marmoset to relate plasma concentration needed for EC80 A2A occupancy for human dose projection, a daily dose range of 3-24 mg was established based on predicted EC50-80 plasma concentrations of rat striatal occupancy and marmoset disability reversal score.

A2A receptor, sequence (P30543 whole entry): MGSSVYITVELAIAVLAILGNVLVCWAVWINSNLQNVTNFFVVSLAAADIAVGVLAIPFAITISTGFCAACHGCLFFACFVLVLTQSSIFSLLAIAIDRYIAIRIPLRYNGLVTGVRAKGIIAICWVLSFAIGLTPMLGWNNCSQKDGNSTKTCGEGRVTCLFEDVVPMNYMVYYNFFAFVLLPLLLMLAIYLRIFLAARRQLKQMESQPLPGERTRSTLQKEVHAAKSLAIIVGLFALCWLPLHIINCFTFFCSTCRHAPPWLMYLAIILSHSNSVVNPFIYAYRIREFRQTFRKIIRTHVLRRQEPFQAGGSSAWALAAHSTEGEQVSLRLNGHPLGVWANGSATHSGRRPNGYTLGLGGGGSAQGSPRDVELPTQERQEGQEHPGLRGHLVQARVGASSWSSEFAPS

## Cc1ccc(C(=O)Nc2nc(-c3ccco3)c(C(=O)C3CCOCC3)s2)cn1 [Compound 504]
A2A receptor; 0.1 mg/kg oral
  reversal of CGS-induced hypolocomotion: completely reversed
A2A receptor; 0.06 and 0.1 mg/kg doses
  reversal of CGS-hypolocomotion (distance travelled, rearing, ambulatory episodes): significantly reversed
A2A receptor; rat, po, read-out: ED50 for antagonism of the CGS-hypolocomotion
  ED50: ~0.06 mg/kg
MPTP-lesion marmosets
  EC80 plasma concentration for disability reversal score: 0.175 µg/mL
